{
  "source": "patent US20080249043A1",
  "about": "“Methods and Compositions Involving Protein Kinase C-Delta” (priority 2004, published 2008)",
  "tested_on": "HeLa cells",
  "assay": "Apoptosis by PI staining and flow cytometry (subG1 population) in HeLa cells",
  "format": "cell-based",
  "procedure": "Cell culture, transfection and treatment—HeLa cells were cultured in Dulbecco's modified Eagle's medium (DMEM) containing 10% fetal bovine serum, 2 mM L-glutamine and penicillin (100 units/ml)-streptomycin (100 μg/ml) at 37° C. in a humidified 5% CO2 atmosphere. HeLa cells at 90% confluence were transfected with different mammalian expression vectors using Lipofectamin 2000 according to the manufacturer's protocol (Invitrogen Inc., Carlsbad, Calif.). At 24 h or 48 h after transfection, cells were treated with 1:100 dilution of AD198 that was dissolved in dimethyl sulfoxide (DMSO). For down-regulation of PLS3, HeLa cells at 50% confluence were transfected with siRNA against PLS3 or a scrambled control. At 48 h, cells were treated with AD198 for 16 h and harvested for flow cytometry. The whole cell lysate was extracted for analysis with Western blotting.\nAnalysis of apoptosis and determination of the transmembrane potential in mitochondria—Cell death was quantified by propidium iodide (PI) staining, followed by flow cytometry (Becton-Dickinson). HeLa cells were fixed in 0.5 ml cold 70% ethanol at −20° C. overnight. Cell pellet were resuspended in 300 μl of PBS containing 0.025 mg/ml PI, 0.05% Triton X-100, 0.1 mg/ml RNase A and incubated at room temperature for 30 min. The DNA content was evaluated by FACScan. For mitochondrial potential analysis, HeLa cells were incubated with MitoTracker Green at 37° C. for 20 min. The cells were collected and washed with PBS and analyzed by FACScan.\nCell culture, transfection, selection and treatment—HeLa cells were cultured in Dulbecco's modified Eagle's medium (DMEM) with 10% fetal bovine serum, 2 mM L-glutamine, 100 units/ml penicillin and 100 μg/ml streptomycin at 37° C. HeLa cells at 90% confluence were transfected with different mammalian expression vectors or siRNA using Lipofectamin 2000 according to the manufacturer's protocol (Invitrogen Inc., Carlsbad, Calif.). At 48 h after transfection, cells were incubated with 5 μM AD198 or dimethyl sulfoxide (DMSO) for 4 h or 16 h. After transfection, cells were selected with 1 mg/ml G418 for 2 wk. After corresponding mock-transfected cells were killed by G418, the concentration of G418 was decreased to 0.5 mg/ml and maintained for another 2 wk. The whole cell lysates or subcellular fractions were extracted for Western blotting analysis (Liu et al. (2003)).\nAnalysis of apoptosis—HeLa cells were harvested and fixed in 70% ethanol at −20° C. overnight. Cells were then washed with PBS and stained with 0.025 mg/ml propidium iodide (PI), 0.05% Triton X-100, 0.1 mg/ml RNase A for 30 min at room temperature. The DNA content was analyzed by FACScan (Becton-Dickinson), and the subG0/G1 population was used to represent apoptosis.",
  "data": [
    {"compound": "CCCCC(=O)OCC(=O)[C@]1(O)Cc2c(O)c3c(c(O)c2[C@@H](O[C@H]2C[C@H](NCc4ccccc4)[C@H](O)[C@H](C)O2)C1)C(=O)c1c(OC)cccc1C3=O", "note": "[AD198, N-benzyladriamycin-14-valerate]", "values": [
      {"measurement": "AD198-induced apoptosis", "setting": "HeLa cells expressing PLS3(T21A), 5 μM AD198, 16 h (FIG. 9)", "value": "same degree of apoptosis as the control cells"},
      {"measurement": "percentage of AD198-induced apoptosis", "setting": "HeLa cells expressing wild-type PLS3, 5 μM AD198, 16 h (FIG. 9)", "value": 31, "unit": "%"},
      {"measurement": "apoptosis after AD198 treatment", "setting": "HeLa cells expressing wild-type PLS3, 5 μM AD198, 16 h (FIG. 11), DMSO 9%", "value": 43, "unit": "%"},
      {"measurement": "apoptosis after AD198 treatment", "setting": "HeLa cells transfected with PLS3(T21D), 5 μM AD198, 16 h (FIG. 11), DMSO 17%", "value": 27, "unit": "%"},
      {"measurement": "AD198-induced apoptosis when PKC-δ down regulated by siRNA", "setting": "HeLa cells, AD198 1, 5 and 10 μM, 16 h", "value": "less apoptosis was detected"},
      {"measurement": "sensitivity to AD198-induced apoptosis of cells with overexpression of PLS3", "setting": "HeLa cells, three concentrations of AD198, 16 h, versus without PLS3 overexpression", "value": "more sensitive"},
      {"measurement": "AD198-induced apoptosis in cells transfected with siRNA against PLS3", "setting": "HeLa cells, versus scrambled siRNA control, 16 h", "value": "suppressed"},
      {"measurement": "apoptosis after AD198 treatment", "setting": "HeLa-control cells, 5 μM AD198, 16 h (FIG. 11), DMSO 6%", "value": 22, "unit": "%"},
      {"measurement": "percentage of AD198-induced apoptosis", "setting": "control HeLa cells, 5 μM AD198, 16 h (FIG. 9)", "value": 7, "unit": "%"}
    ]}
  ]
}
